{"source": "patent US10966944B2", "about": "“[2.2.2] bicyclic derivatives and methods of use” (ASE PHARMACEUTICALS, LLC, priority 2008, dated 2021)", "key": {"[1]": {"test_system": "adult epilepsy patients", "test": "EEG parameters before and after treatment (Example 2)", "type": "in vivo, human", "details": "averaged, after treatment (before treatment: 197.7)", "from_the_text": "(§1) Main study parameters included efficiency criteria such as the number and severity of seizures, and safety criteria such as the clinical and laboratory tests. The complete examination included: • 1) Neurological exams. • 2) Computer-assisted tomography (CAT scan). • 3) MRI of the brain. • 4) General blood work: baseline before Sodium bicyclo-[2.2.2]-octane-2-carboxylate treatment, 2 weeks and 1.5 months after the beginning of the treatment. • 5) General urine analysis. • 6) Blood biochemistry. • 7) ECG. • 8) EEG and pharmaco-EEG. Physical exams and testing results were registered by a research physician in the MRs and were analyzed by statistical methods."}, "[2]": {"test_system": "adult epilepsy patients", "test": "ECG recording during the study (Example 2)", "type": "in vivo, human", "details": "patients with extrasystolia and tachycardia", "from_the_text": "as §1, with “methods. ECGs were recorded before the beginning of the treatment, during the course of the study (on a regular basis), and immediately after the study had been completed. […] In the patients with extrasystolia and tachycardia, extrasystolia was not observed by the end of the first treatment month, while the heart rate decreased on average from 88/min to 80/min. In the patients with bradycardia, sinus rhythm dropped further.” for “methods.”"}, "[3]": {"test_system": "epilepsy patients", "test": "Clinical trials in epilepsy patients and volunteers (Example 1)", "type": "in vivo, human", "protocol": "Clinical trials involving administration of sodium bicyclo-[2.2.2]-octane-2-carboxylate were performed on 30 epilepsy patients and 20 volunteers in two clinics in Moscow. […] Classification of the patients was done in accordance with International Classification of Epilepsy and Epileptic Syndromes (ILAE, 1989). Some of the subjects also suffered from addictive disorders (alcoholism, drug addiction). In 73% of trial subjects, sodium bicyclo-[2.2.2]-octane-2-carboxylate administration reduced the frequency, intensity, and duration of epileptic seizures. […] It normalized cerebral blood circulation and increased the sympathetic tonus of the patients. […] The following were used to assess trial subjects: • Visual checkup • EEG • CT • MRT • Clinical blood and urine tests • general blood test • biochemical blood test • general urine tests • Inspection and checkup of organs and systems: • respiratory system • cardiovascular system • alimentary system • urinary system • Neurological status • Concurrent disease status."}, "[4]": {"test_system": "adult epilepsy patients", "test": "Randomized open-controlled study, add-on to base therapy: frequency and severity of epileptic seizures (Example 2)", "type": "in vivo, human", "protocol": "The study of sodium bicyclo-[2.2.2]-octane-2-carboxylate as an addition to a base therapy was conducted in the group of adult epilepsy patients. Sodium bicyclo-[2.2.2]-octane-2-carboxylate was administered during 10 weeks. Thirty patients in both hospitals (twenty-six males and four females) were included in the studies.\nBase therapy was administered in accordance with recommendations by the International Anti-epileptic League (1989). During the study, the patients continued to receive pathogenetic treatment. Medication names, doses and the duration of any treatment were registered in patients' medical records (MR). The patients continued receiving their standard prescribed medications and were not switched to a different drug at any time during the study.\nDuring the introductory period of 7 to 10 days, the patients were examined; base therapy scheme was being finalized and was described in a standard protocol. In accordance with the protocol, the patients were screened for inclusion/exclusion factors. Only those patients who signed an informed consent and who satisfied the inclusion criteria were included in the study. The frequency of epileptic seizures in patients receiving pre-sodium bicyclo-[2.2.2]-octane-2-carboxylate base therapy varied from 1 to 16 times a month.\n(§2) At the start of sodium bicyclo-[2.2.2]-octane-2-carboxylate protocol, all patients began receiving sodium bicyclo-[2.2.2]-octane-2-carboxylate at 100 mg four times a day. If the clinical effect was absent by day 14, the dose of Sodium bicyclo-[2.2.2]-octane-2-carboxylate was increased to 150 mg. Patients with various forms of epilepsy were selected for the study (Table 2).\nas §1\nTo evaluate treatment efficacy, the frequency and severity of epileptic seizures were monitored. […] In the majority of patients suffering from partial epilepsy, seizures became less severe and occurred less frequently. The patients reported feeling better, with improvement of mood, work efficiency, and sleep quality. […]"}, "[5]": {"test_system": "adult epilepsy patients", "test": "Blood chemistry before and after treatment (Example 2, safety)", "type": "in vivo, human", "protocol": "as §2, §1\n(§3) The effective therapeutic dose was determined as 400 mg per day in 60% of the patients, and 600 mg per day in the remaining 40%. Safety aspects of sodium bicyclo-[2.2.2]-octane-2-carboxylate were evaluated during the treatment and after the treatment by monitoring the clinical and laboratory parameters.\n(§4) Before-before Sodium bicyclo-[2.2.2]-octane-2-carboxylate treatment After-after Sodium bicyclo-[2.2.2]-octane-2-carboxylate treatment. No statistically significant differences in any other parameters before and after Sodium bicyclo-[2.2.2]-octane-2-carboxylate treatment were detected."}, "[6]": {"test_system": "adult epilepsy patients", "test": "General blood work before and after treatment (Example 2, safety)", "type": "in vivo, human", "protocol": "as §2, §1, §3, §4"}, "[7]": {"test_system": "adult epilepsy patients", "test": "Dysphoria and general condition in the study patients (Example 2)", "type": "in vivo, human", "protocol": "During each scheduled visit and at the completion of the study, complete physical examination of each patient was performed. Physical exams included patients' general condition, examinations of the skin, ENT, lungs, heart, stomach, lymph nodes, central nervous system, etc. Valid data obtained before beginning of Sodium bicyclo-[2.2.2]-octane-2-carboxylate treatment was entered in appropriate sections of MRs. The data collected during the treatment (including the observed side effects) was entered in the Brief Description sections of the MRs. […] This effect correlated with disappearance of alcohol addiction."}, "[8]": {"details": "average, after treatment (before: 4.75)"}, "[9]": {"details": "deviation after vs before treatment"}}}
{"smiles": "O=C([O-])C1CC2CCC1CC2.[Na+]", "note": "(centres unmarked) [Sodium bicyclo-[2.2.2]-octane-2-carboxylate]", "values": [{"measurement": "melting point", "result": "84 to 86", "unit": "°C"}, {"measurement": "EEG parameters (focus of pathological activity)", "setting": "[1]", "result": 151.5, "unit": "μV"}, {"measurement": "heart rate", "setting": "[2]; average, decreased from 88/min", "result": 80, "unit": "min⁻¹"}, {"measurement": "extrasystolia", "setting": "[2]; by the end of the first treatment month", "result": "not observed"}, {"measurement": "trial subjects with reduced frequency, intensity, and duration of epileptic seizures", "setting": "[3]; 30 epilepsy patients and 20 volunteers, two clinics", "result": 73, "unit": "%"}, {"measurement": "side effects in human clinical trials", "setting": "[3]; human clinical trials", "result": "without significant negative side effects"}, {"measurement": "effective therapeutic dose", "setting": "[4]; in 60% of the patients", "result": 400, "unit": "mg per day"}, {"measurement": "effective therapeutic dose", "setting": "[4]; in the remaining 40% of the patients", "result": 600, "unit": "mg per day"}, {"measurement": "patients with decrease in seizure frequency (number)", "setting": "[4]; of 30 patients", "result": 22, "unit": "patients"}, {"measurement": "patients with decrease in seizure frequency (percent)", "setting": "[4]; of 30 patients", "result": 73.3, "unit": "%"}, {"measurement": "Glucose, After", "setting": "[5]; [8]", "result": 4.48, "unit": "mmol/L"}, {"measurement": "General bilirubin, After", "setting": "[5]; average, after treatment (before: 14.3)", "result": 11.5, "unit": "µmol/L"}, {"measurement": "ACT, After", "setting": "[5]; average, after treatment (before: 45.1)", "result": 24.6}, {"measurement": "ALT, After", "setting": "[5]; average, after treatment (before: 46.2)", "result": 21.5}, {"measurement": "Creatinin, after", "setting": "[5]; average, after treatment (before: 70.5)", "result": 69.4, "unit": "µmol/L"}, {"measurement": "General Protein, After", "setting": "[5]; average, after treatment (before: 75.5)", "result": 77.4, "unit": "g/L"}, {"measurement": "ACT, % dev.", "setting": "[5]; [9]", "result": 45.4, "unit": "%"}, {"measurement": "ALT, % dev.", "setting": "[5]; [9]", "result": 53.5, "unit": "%"}, {"measurement": "Creatinin, % dev.", "setting": "[5]; [9]", "result": 1.6, "unit": "%"}, {"measurement": "General Protein, % dev.", "setting": "[5]; [9]", "result": 2.5, "unit": "%"}, {"measurement": "General bilirubin, % dev.", "setting": "[5]; [9]", "result": 19.6, "unit": "%"}, {"measurement": "Glucose, % dev.", "setting": "[5]; [9]", "result": 5.7, "unit": "%"}, {"measurement": "Color Index, After", "setting": "[6]; average, after treatment (before: 0.895)", "result": 0.928}, {"measurement": "Eosinophiles (%), After", "setting": "[6]; average, after treatment (before: 2.53)", "result": 2.53, "unit": "%"}, {"measurement": "Monocytes (%), After", "setting": "[6]; average, after treatment (before: 3.0)", "result": 2.8, "unit": "%"}, {"measurement": "Erythrocytes, After", "setting": "[6]; [8]", "result": "4.79 10^12/L"}, {"measurement": "ESR, After", "setting": "[6]; average, after treatment (before: 7.3)", "result": 5.2, "unit": "mm"}, {"measurement": "Leukocytes, After", "setting": "[6]; average, after treatment (before: 7.9)", "result": "7.47 10^9/L"}, {"measurement": "Lymphocytes (%), After", "setting": "[6]; average, after treatment (before: 20.9)", "result": 21.1, "unit": "%"}, {"measurement": "Neutrophiles (%), After", "setting": "[6]; average, after treatment (before: 72.7)", "result": 71.2, "unit": "%"}, {"measurement": "Hemoglobin, After", "setting": "[6]; average, after treatment (before: 143.4), in g/L (unit assumed)", "result": 140.13}, {"measurement": "Platelets, After", "setting": "[6]; average, after treatment (before: 205.5), in 10^9/L (unit assumed)", "result": 230.3}, {"measurement": "Color Index, % dev.", "setting": "[6]; [9]", "result": 3.7, "unit": "%"}, {"measurement": "ESR, % dev.", "setting": "[6]; [9]", "result": 28.8, "unit": "%"}, {"measurement": "Eosinophiles, % dev.", "setting": "[6]; [9]", "result": 0, "unit": "%"}, {"measurement": "Erythrocytes, % dev.", "setting": "[6]; [9]", "result": 1.48, "unit": "%"}, {"measurement": "Hemoglobin, % dev.", "setting": "[6]; [9]", "result": 2.3, "unit": "%"}, {"measurement": "Leukocytes, % dev.", "setting": "[6]; [9]", "result": 5.95, "unit": "%"}, {"measurement": "Lymphocytes, % dev.", "setting": "[6]; [9]", "result": 0.94, "unit": "%"}, {"measurement": "Monocytes, % dev.", "setting": "[6]; [9]", "result": 6.7, "unit": "%"}, {"measurement": "Neutrophiles, % dev.", "setting": "[6]; [9]", "result": 2.06, "unit": "%"}, {"measurement": "Platelets, % dev.", "setting": "[6]; [9]", "result": 12.07, "unit": "%"}, {"measurement": "effects on the blood counts and blood biochemistry", "setting": "[6]; during and after the treatment", "result": "No unfavorable effects"}, {"measurement": "changes in blood and urine tests", "setting": "[6]; summary of the study", "result": "did not cause any changes"}, {"measurement": "patients' behavior and the functions of major organs and systems", "setting": "[7]; during 10 weeks of treatment", "result": "not negatively affected"}, {"measurement": "cases with effective treatment of dysphoria or dysphoria-like conditions", "setting": "[7]; of all cases", "result": 93.3, "unit": "%"}, {"measurement": "dysphoria and paroxysmal activity on EEG", "setting": "[7]; patients who suffered from alcohol addiction in the past, after 1.5 month of treatment", "result": "disappeared or decreased"}]}
